Data: US8501787B2, “Compounds for the inhibition of angiogenesis and use thereof” (Shire Orphan Therapies GmbH, priority 2004, dated 2013)

The compounds below were run against T1, integrin alpha5beta1 (Homo sapiens, UniProt P05556+P08648) (assay: Alpha5beta1-Fibronectin binding assay (competitive ELISA)). Conditions: method of section 1.1; read-out: Group (binding activities to integrin alpha5beta1).
T1 construct: The integrin alpha5beta1 extracellular domain Fc-fusion was expressed and purified; made in house
Method: The optimal concentrations of integrin and ligand were selected from ELISA binding studies with variable concentrations of both to obtain optimal signal noise ratio for further studies. IC50 studies were performed with fixed concentration of ligand and integrin and a serial dilution of inhibitor. The plates were measured with SpectraMax Plus reader (Molecular Devices). The resulting inhibition curves were analyzed using SoftMaxPro 4.0 software, the turning point describes the IC50 value.
Fibronectin and Vitronectin were purchased from Sigma, fibrinogen from Calbiochem. (EMD Biosciences, Darmstadt, Germany) The integrin alpha5beta1 extracellular domain Fc-fusion was expressed and purified as described in (Coe, 2001, JBC, 276, 35854). Integrins alphavbeta3 and alphavbeta5 were purchased from Chemicon (Chemicon Europe, Germany) and alphaIIbbeta3 form Kordia (Kordia Life Science, Leiden, Netherlands)
Fibronectin was diluted with coating buffer (15 mM Na2CO3, 35 mM NaHCO3, pH9.6) and coated with 100 μL/well to Nunc-Immuno maxisorp plates (Nalge Nunc Europe Ltd) over night at 4° C. After discarding the coating solution plates were washed 3 times with buffer 1 ([…], pH7.6, 150 mM NaCl, 1 mM […], 1 mg/mL BSA) and blocked with 100 μL blocking buffer (3% BSA in PBS 0.1% Tween20) for 1 hour at room temperature. After washing the blocked plates (3 times) with buffer 1, integrin (50 μL) and either inhibitor (serial dilution in buffer 1) or buffer 1 (50 μL) were added to the wells and incubated for one hour at RT. Plates were then washed (3 times) with buffer 1 and incubated with 100 μL of anti-human-Fc-HRP antibody conjugate (Sigma-Aldrich, Taufkirchen, Germany) in buffer 1 for 1 hour at RT. After additional washing steps (3 times) with buffer 1 50 μL of HRP substrate solution TMB (Seramun, Germany) were added to the wells. Colour development was stopped after 3-5 minutes with 50 μL 1M H2SO4. The developed colour was measured at 450 nm and analyzed as described above.

Row | IC50 [nM] | Compound
1 | < 10 | O=C(CO[C@@H]1C[C@@H](CNc2ccccn2)N(C(=O)OCc2ccccc2)C1)NC[C@H](NC(=O)c1ccccc1[N+](=O)[O-])C(=O)O [Compound 96, 4-{[2-Carboxy-2-(2-nitro-benzoylamino)-ethylcarbamoyl]-methoxy}-2-(pyridin-2-ylaminomethyl)-pyrrolidine-1-carboxylic acid benzyl ester]
2 | < 10 | O=C(CO[C@@H]1C[C@@H](CNc2ccccn2)N(C(=O)OCc2ccccc2)C1)NC[C@H](NC(=O)c1ccccc1Cl)C(=O)O [Compound 97, 4-{[2-Carboxy-2-(2-chloro-benzoylamino)-ethylcarbamoyl]-methoxy}-2-(pyridin-2-ylaminomethyl)-pyrrolidine-1-carboxylic acid benzyl ester]
3 | 10 to 500 | O=C(CO[C@@H]1C[C@@H](CNc2ccccn2)N(C(=O)OCc2ccccc2)C1)NC[C@H](NC(=O)c1ccccc1-c1ccccc1)C(=O)O [Compound 104, 4-({2-[(Biphenyl-2-carbonyl)-amino]-2-carboxy-ethylcarbamoyl}-methoxy)-2-(pyridin-2-ylaminomethyl)-pyrrolidine-1-carboxylic acid benzyl ester]
4 | 10 to 500 | O=C(CO[C@@H]1C[C@@H](CNc2ccccn2)N(C(=O)OCc2ccccc2)C1)NC[C@H](NC(=O)C1(c2ccccc2)CC1)C(=O)O [Compound 106, 4-({2-Carboxy-2-[(1-phenyl-cyclopropanecarbonyl)-amino]-ethylcarbamoyl}-methoxy)-2-(pyridin-2-ylaminomethyl)-pyrrolidine-1-carboxylic acid benzyl ester]
5 | < 10 | CC(C)(C)C(=O)N[C@@H](CNC(=O)CO[C@@H]1C[C@@H](CNc2ccccn2)N(C(=O)OCc2ccccc2)C1)C(=O)O [Compound 117, 4-{[2-Carboxy-2-(2,2-dimethyl-propionylamino)-ethylcarbamoyl]-methoxy}-2-(pyridin-2-ylaminomethyl)-pyrrolidine-1-carboxylic acid benzyl ester]
6 | < 10 | CCC(C)(C)C(=O)N[C@@H](CNC(=O)CO[C@@H]1C[C@@H](CNc2ccccn2)N(C(=O)OCc2ccccc2)C1)C(=O)O [Compound 118, 4-{[2-Carboxy-2-(2,2-dimethyl-butyrylamino)-ethylcarbamoyl]-methoxy}-2-(pyridin-2-ylaminomethyl)-pyrrolidine-1-carboxylic acid benzyl ester]
7 | > 500 | CC(C)c1cc(C(C)C)c(C(=O)N[C@@H](CNC(=O)CO[C@@H]2C[C@@H](CNc3ccccn3)N(C(=O)OCc3ccccc3)C2)C(=O)O)c(C(C)C)c1 [Compound 126, 4-{[2-Carboxy-2-(2,4,6-triisopropyl-benzoylamino)-ethylcarbamoyl]-methoxy}-2-(pyridin-2-ylaminomethyl)-pyrrolidine-1-carboxylic acid benzyl ester]
8 | 10 to 500 | O=C(CO[C@@H]1C[C@@H](CNc2ccccn2)N(C(=O)OCc2ccccc2)C1)NC[C@H](NC(=O)CCCc1ccccc1)C(=O)O [Compound 127, 4-{[2-Carboxy-2-(4-phenyl-butyrylamino)-ethylcarbamoyl]-methoxy}-2-(pyridin-2-ylaminomethyl)-pyrrolidine-1-carboxylic acid benzyl ester]
9 | > 500 | Cc1cc(C)c(S(=O)(=O)N[C@@H](CNC(=O)CO[C@@H]2C[C@@H](CNc3ncccn3)N(C(=O)OCc3ccccc3)C2)C(=O)O)c(C)c1 [Compound 130, 4-{[2-Carboxy-2-(2,4,6-trimethyl-benzenesulfonylamino)-ethylcarbamoyl]-methoxy}-2-(pyrimidin-2-ylaminomethyl)-pyrrolidine-1-carboxylic acid benzyl ester]
10 | > 500 | Cc1cc(C)c(S(=O)(=O)N[C@@H](CNC(=O)CO[C@@H]2C[C@@H](CNc3cc[nH]n3)N(C(=O)OCc3ccccc3)C2)C(=O)O)c(C)c1 [Compound 135, 4-{[2-Carboxy-2-(2,4,6-trimethyl-benzenesulfonylamino)-ethylcarbamoyl]-methoxy}-2-[(1H-pyrazol-3-ylamino)-methyl]-pyrrolidine-1-carboxylic acid benzyl ester]
11 | < 10 | COc1ccnc(NC[C@@H]2C[C@@H](OCC(=O)NC[C@H](NC(=O)C3(C)CCCCC3)C(=O)O)CN2C(=O)CC(C)(C)C)c1 [Compound 148, 3-(2-{1-(3,3-Dimethyl-butyryl)-5-[(4-methoxy-pyridin-2-ylamino)-methyl]-pyrrolidin-3-yloxy}-acetylamino)-2-[(1-methyl-cyclohexanecarbonyl)-amino]-propionic acid]
12 | > 500 | O=C(O)C[C@H](Cc1ccccc1)NC(=O)CO[C@@H]1C[C@@H](CNc2ccccn2)N(C(=O)OCc2ccccc2)C1 [Compound 150, 4-[(1-Carboxymethyl-2-phenyl-ethylcarbamoyl)-methoxy]-2-(pyridin-2-ylaminomethyl)-pyrrolidine-1-carboxylic acid benzyl ester]
13 | > 500 | Cc1ccc(C[C@@H](CC(=O)O)NC(=O)CO[C@@H]2C[C@@H](CNc3ccccn3)N(C(=O)OCc3ccccc3)C2)cc1 [Compound 152, 4-[(1-Carboxymethyl-2-p-tolyl-ethylcarbamoyl)-methoxy]-2-(pyridin-2-ylaminomethyl)-pyrrolidine-1-carboxylic acid benzyl ester]
